Format in all cases: binding
One assay concerns the target T1, human isoform h5-HT4e (Homo sapiens, UniProt Q13639).
T1 construct: expressed in transfected cells; membrane preparation
Put plainly: displacement of radioligand [3H]-GR113808 in rat glial cells expressing h5-HT4e. How it is done: The compounds of the invention were evaluated by measuring their affinity constant Ki determined by displacing a radioligand [^3H]-GR113808 in rat glial cells stably expressing the human isoform h5-HT4e.
Confluent glial cells were washed twice in PBS and centrifuged at 300 g for 5 min. The pellet was used immediately and the cells were suspended in 10 volumes of HEPES (50 mM, pH 7.4, 4° C.) then homogenized with a teflon homogenizer and centrifuged at 40,000 g for 20 min. The pellet was resuspended in 15 volumes of HEPES. Displacement experiments were carried out in 500 μl of buffer (50 mM HEPES) containing 20 μl of radioligand [^3H]-GR113808 at a concentration of 0.2 nM for isoform h5-HT4e or at a concentration equal to half of the Kd of the radioligand for the other isoforms expressed in COS cells, 20 μl of competitor ligand at seven different concentrations and 50 μl of membrane preparation (100–200 μg of protein determined by the Bradford method). Binding was carried out at 25° C. for 30 min and the reaction was stopped by rapid vacuum filtration (Brandel Harvester) on Whatman GF/B filters preincubated in 0.1% PEI solution to minimize nonspecific binding.
Membrane-bound radioactivity is retained on the filter, which was cut and washed with cold buffer (50 mM Tris-HCl, pH 7.4) and incubated overnight in 4 ml of scintillation liquid. Radioactivity was measured in a liquid scintillation counter (Beckman LS 6500C). Binding data were obtained by computer assisted linear regression (Graph Prism Program, Graph Pad Software. Inc., San Diego, Calif.)

For a further assay, the target named is 5-HT6 receptor (Homo sapiens, UniProt P50406). Put plainly: selectivity, 5-HT6 receptor. As to conditions: up to a concentration of 1 μM.
Another assay concerns the target T2, 5-HT3 receptor (Homo sapiens, UniProt P46098).
T2 sequence (P46098 24-478): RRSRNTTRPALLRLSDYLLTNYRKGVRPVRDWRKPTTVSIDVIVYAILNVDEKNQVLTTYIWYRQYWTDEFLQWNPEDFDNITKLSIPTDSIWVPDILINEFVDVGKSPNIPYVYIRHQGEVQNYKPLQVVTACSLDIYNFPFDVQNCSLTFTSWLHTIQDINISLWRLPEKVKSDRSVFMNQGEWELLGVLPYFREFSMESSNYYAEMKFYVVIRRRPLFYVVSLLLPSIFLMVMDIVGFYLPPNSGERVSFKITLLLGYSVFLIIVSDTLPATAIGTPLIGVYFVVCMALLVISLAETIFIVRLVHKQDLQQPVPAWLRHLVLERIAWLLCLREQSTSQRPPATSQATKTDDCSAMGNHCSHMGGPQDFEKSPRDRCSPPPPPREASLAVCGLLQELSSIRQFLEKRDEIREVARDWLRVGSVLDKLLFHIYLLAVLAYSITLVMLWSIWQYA
The assay can be described thus: selectivity, 5-HT3 receptor. The note with it: up to a concentration of 1 μM.

The next assay has as its target T3, 5-HT2C receptor (Homo sapiens, UniProt P28335).
T3 sequence (P28335 33-458): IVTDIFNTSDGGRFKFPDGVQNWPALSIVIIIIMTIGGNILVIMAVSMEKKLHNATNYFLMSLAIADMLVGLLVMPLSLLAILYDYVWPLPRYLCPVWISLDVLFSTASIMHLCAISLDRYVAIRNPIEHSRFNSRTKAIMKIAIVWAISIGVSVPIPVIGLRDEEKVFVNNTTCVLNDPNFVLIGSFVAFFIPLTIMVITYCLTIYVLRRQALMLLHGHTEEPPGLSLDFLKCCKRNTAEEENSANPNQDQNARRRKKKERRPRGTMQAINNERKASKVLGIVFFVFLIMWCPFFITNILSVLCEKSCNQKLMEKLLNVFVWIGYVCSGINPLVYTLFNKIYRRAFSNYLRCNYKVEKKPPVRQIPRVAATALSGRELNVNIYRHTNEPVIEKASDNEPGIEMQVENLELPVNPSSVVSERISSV
The assay can be described thus: selectivity, 5-HT2C receptor. As to conditions: up to a concentration of 1 μM.

The target of the next assay is 5-HT5A receptor (Homo sapiens, UniProt P47898). Put plainly: selectivity, 5-HT5A receptor. As to conditions: up to a concentration of 1 μM.
The target in another assay is 5-HT1B receptor (Homo sapiens, UniProt P28222). Put plainly: selectivity, 5-HT1B receptor. As to conditions: up to a concentration of 1 μM.
Another assay has as its target T4, 5-HT1A receptor (Homo sapiens, UniProt P08908).
T4 sequence (P08908 1-422): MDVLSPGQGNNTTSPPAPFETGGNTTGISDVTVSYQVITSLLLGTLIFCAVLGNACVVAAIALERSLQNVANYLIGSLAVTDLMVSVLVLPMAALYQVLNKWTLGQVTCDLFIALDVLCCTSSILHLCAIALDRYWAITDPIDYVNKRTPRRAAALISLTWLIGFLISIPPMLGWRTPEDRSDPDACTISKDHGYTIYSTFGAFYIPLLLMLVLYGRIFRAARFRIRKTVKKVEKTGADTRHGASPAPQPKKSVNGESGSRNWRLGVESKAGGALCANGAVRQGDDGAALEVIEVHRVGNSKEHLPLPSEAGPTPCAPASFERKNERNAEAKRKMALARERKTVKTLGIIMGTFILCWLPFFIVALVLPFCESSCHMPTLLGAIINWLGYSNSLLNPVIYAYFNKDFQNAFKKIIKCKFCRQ
Put plainly: selectivity, 5-HT1A receptor. The note with it: up to a concentration of 1 μM.

Another assay has as its target 5-HT2A receptor (Homo sapiens, UniProt P28223). The assay can be described thus: selectivity, 5-HT2A receptor. The note with it: up to a concentration of 1 μM.
The next assay deals with 5-HT7 receptor (Homo sapiens, UniProt P34969). Put plainly: selectivity, 5-HT7 receptor. As to conditions: up to a concentration of 1 μM.
The mark [1] stands for this setting: [3H]-GR113808 0.2 nM, membranes of rat glial cells expressing h5-HT4e, 25° C., 30 min, read-out: Ki.

SMILES strings stand for the structures. pKi: −log10 of the molar value. Like-named read-outs stand apart in the source and are kept apart here.

T1 sequence (Q13639 1-378 isoform Q13639-5): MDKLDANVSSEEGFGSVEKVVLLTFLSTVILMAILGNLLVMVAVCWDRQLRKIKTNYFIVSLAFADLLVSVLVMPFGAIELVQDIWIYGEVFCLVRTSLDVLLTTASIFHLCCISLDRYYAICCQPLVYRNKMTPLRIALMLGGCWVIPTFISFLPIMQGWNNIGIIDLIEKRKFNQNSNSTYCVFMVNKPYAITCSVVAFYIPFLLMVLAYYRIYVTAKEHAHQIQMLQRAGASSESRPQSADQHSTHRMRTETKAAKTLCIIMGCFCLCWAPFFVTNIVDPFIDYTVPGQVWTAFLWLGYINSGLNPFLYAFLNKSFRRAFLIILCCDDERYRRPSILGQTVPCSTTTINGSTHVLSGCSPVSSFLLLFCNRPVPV
5-HT6 receptor, sequence (P50406 whole entry): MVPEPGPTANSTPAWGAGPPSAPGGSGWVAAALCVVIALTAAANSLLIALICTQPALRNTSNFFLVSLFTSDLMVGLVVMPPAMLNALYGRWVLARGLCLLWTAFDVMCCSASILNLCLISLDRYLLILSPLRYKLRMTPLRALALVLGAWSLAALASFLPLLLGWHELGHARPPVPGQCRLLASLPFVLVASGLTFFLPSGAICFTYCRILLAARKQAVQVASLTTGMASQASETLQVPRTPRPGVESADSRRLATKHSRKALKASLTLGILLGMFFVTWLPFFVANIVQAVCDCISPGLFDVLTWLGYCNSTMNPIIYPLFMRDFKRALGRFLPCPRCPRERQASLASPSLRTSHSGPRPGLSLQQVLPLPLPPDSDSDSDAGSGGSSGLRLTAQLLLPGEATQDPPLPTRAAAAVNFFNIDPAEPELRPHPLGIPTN
5-HT5A receptor, sequence (P47898 whole entry): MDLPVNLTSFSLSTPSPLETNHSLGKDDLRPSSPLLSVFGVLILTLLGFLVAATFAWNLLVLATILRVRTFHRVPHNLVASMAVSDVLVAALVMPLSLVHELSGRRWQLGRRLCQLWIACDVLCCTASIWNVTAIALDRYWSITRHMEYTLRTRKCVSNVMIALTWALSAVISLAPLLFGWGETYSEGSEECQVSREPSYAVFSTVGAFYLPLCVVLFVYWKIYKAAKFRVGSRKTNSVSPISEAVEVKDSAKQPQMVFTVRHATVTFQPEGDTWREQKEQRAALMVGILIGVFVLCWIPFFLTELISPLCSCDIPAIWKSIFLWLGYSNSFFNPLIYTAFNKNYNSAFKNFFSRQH
5-HT1B receptor, sequence (P28222 whole entry): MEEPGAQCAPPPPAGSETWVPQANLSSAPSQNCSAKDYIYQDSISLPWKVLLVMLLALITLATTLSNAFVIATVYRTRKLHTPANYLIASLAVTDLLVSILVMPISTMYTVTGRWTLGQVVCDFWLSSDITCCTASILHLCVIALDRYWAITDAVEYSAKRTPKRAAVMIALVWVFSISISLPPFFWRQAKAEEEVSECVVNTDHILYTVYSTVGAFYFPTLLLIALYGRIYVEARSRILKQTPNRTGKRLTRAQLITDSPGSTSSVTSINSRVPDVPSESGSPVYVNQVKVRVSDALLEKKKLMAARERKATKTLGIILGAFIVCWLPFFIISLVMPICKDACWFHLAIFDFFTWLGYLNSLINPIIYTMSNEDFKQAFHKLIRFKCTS
5-HT2A receptor, sequence (P28223 whole entry): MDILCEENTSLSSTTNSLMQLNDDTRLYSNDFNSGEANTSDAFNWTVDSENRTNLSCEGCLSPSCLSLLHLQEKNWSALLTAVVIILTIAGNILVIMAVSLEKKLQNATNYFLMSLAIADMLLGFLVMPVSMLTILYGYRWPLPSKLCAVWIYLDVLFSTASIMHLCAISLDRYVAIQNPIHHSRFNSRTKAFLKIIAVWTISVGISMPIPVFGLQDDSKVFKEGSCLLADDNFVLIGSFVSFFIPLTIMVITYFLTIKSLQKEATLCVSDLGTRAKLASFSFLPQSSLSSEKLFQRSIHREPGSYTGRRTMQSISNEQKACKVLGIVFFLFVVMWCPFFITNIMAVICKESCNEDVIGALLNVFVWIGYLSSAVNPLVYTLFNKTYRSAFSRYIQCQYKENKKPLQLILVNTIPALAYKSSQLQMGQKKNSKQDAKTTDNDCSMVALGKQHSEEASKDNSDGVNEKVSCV
5-HT7 receptor, sequence (P34969 whole entry): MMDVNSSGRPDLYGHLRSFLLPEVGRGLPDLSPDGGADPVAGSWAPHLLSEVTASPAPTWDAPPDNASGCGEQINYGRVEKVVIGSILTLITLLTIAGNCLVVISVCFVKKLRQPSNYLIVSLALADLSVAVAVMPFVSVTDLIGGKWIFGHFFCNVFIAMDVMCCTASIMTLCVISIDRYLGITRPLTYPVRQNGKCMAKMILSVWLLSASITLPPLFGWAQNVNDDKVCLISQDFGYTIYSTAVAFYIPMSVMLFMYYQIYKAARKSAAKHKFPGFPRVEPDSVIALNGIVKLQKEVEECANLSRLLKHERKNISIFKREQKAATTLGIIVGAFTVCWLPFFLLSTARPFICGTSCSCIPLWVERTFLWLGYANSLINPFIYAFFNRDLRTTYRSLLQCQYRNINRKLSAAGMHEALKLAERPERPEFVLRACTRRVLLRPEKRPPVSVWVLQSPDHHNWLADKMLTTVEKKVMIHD

On to `COc1ccccc1NC(=O)OCCN1CCN(c2ncccn2)CC1` [Compound 65, 2-[4-(2-pyrimidinyl)piperazino]ethyl-N-(2-methoxyphenyl)carbamate], for which the pKi at human isoform h5-HT4e (setting [1]) is 7.98.

As to `CCOc1ccccc1NC(=O)OCCN1CCN(c2ccccn2)CC1` [Compound 24, 2-[4-(2-pyridinyl)piperazino]ethyl-N-(2-ethoxyphenyl)carbamate], the pKi at human isoform h5-HT4e (setting [1]) is 8.35.

In the case of `COc1ccccc1NC(=O)OCCN1CCN(c2ccccn2)CC1` [Compound 62, 2-[4-(2-pyridinyl)piperazino]ethyl-N-(2-methoxyphenyl)carbamate], the pKi at human isoform h5-HT4e (setting [1]) is 8.03.

With `COc1ccccc1NC(=O)OCCCN1CCN(c2ccncc2)CC1` [Compound 83, 3-[4-(4-pyridinyl)piperazino]propyl-N-(2-methoxyphenyl)carbamate], the negative-log Ki (pKi) on human isoform h5-HT4e (setting [1]) is 8.00.

In the case of `CCOc1ccccc1NC(=O)OCCCN1CCN(c2ccncn2)CC1` [Compound 43, 3-[4-(4-pyrimidinyl)piperazino]propyl-N-(2-ethoxyphenyl)carbamate], the pKi at human isoform h5-HT4e (setting [1]) is 7.98.

`COc1ccccc1NC(=O)OCCN1CCN(c2cccnn2)CC1` [Compound 64, 2-[4-(3-pyridazinyl)piperazino]ethyl-N-(2-methoxyphenyl)carbamate]: on human isoform h5-HT4e (setting [1]), the pKi is 7.97.

With `COc1cccc(N2CCN(CCOC(=O)Nc3ccccc3OC)CC2)c1` [Compound 51, 2-[4-(3-methoxyphenyl)piperazino]ethyl-N-(2-methoxyphenyl)carbamate], the pKi at human isoform h5-HT4e (setting [1]) was 7.90.

Turning to `COc1ccccc1NC(=O)OCCN1CCN(c2ccncc2)CC1` [Compound 63, 2-[4-(4-pyridinyl)piperazino]ethyl-N-(2-methoxyphenyl)carbamate], on human isoform h5-HT4e (as stated in the description, read-out: Ki for the 5-HT4 receptor), the negative-log Ki (pKi) was 8.30. For the same compound, the “activity for the 5-HT6 receptor” value at 5-HT6 receptor was “no activity”. For the same compound, the “activity for the 5-HT3 receptor” value on 5-HT3 receptor is recorded as “no activity”. Also, the “activity for the 5-HT2C receptor” value on 5-HT2C receptor was “no activity”. The “activity for the 5-HT5A receptor” value on 5-HT5A receptor is “no activity”. In addition, the “activity for the 5-HT1B receptor” value on 5-HT1B receptor is “no activity”. For the same compound, the “activity for the 5-HT1A receptor” value at 5-HT1A receptor is recorded as “no activity”. The “activity for the 5-HT2A receptor” value on 5-HT2A receptor was “no activity”. At 5-HT7 receptor, the “activity for the 5-HT7 receptor” value is on record as “no activity”.

Consider `CCOc1ccccc1NC(=O)OCCCN1CCN(c2ncccn2)CC1` [Compound 44, 3-[4-(2-pyrimidinyl)piperazino]propyl-N-(2-ethoxyphenyl)carbamate], for which, at human isoform h5-HT4e (setting [1]), the pKi was 7.93.

Take `CCOc1ccccc1NC(=O)OCCCN1CCN(c2ccccn2)CC1` [Compound 40, 3-[4-(2-pyridinyl)piperazino]propyl-N-(2-ethoxyphenyl)carbamate]: the negative-log Ki (pKi) at human isoform h5-HT4e (setting [1]) was 8.00.

Take `CCOc1ccccc1NC(=O)OCCCN1CCN(c2ccc(C)nn2)CC1` [Compound 48, 3-[4-(6-methyl-3-pyridazinyl)piperazino]propyl-N-(2-ethoxyphenyl)carbamate]: on human isoform h5-HT4e (setting [1]), the negative logarithm of the Ki (pKi) is 8.41.

Turning to `CCOc1ccccc1NC(=O)OCCCN1CCN(c2cccnn2)CC1` [Compound 42, 3-[4-(3-pyridazinyl)piperazino]propyl-N-(2-ethoxyphenyl)carbamate], the pKi on human isoform h5-HT4e (setting [1]) was 8.44.

For `CCOc1ccccc1NC(=O)OCCN1CCN(c2cccc(C)c2)CC1` [Compound 21, 2-[4-(3-methylphenyl)piperazino]ethyl-N-(2-ethoxyphenyl)carbamate], on human isoform h5-HT4e (setting [1]), the pKi is 7.69.

Values taken from US7238693B2, “Aryl carbamate derivatives, preparation and use thereof” (Cerep, priority 2001, dated 2007).
